# Data as given in US9029420B2, “Agomelatine and pharmaceutical compositions thereof” (Tianjin Taipu Pharmaceutical Science & Technology …, priority 2009, dated 2015).
# Assay: pharmacological and pharmacodynamic studies
# Conditions: no method or data given
structure (smiles),measurement,value
"COc1ccc2cccc(CCNC(C)=O)c2c1 [agomelatine crystal, N-[2-(7-methoxy-1-naphthyl)-ethyl]acetamide]",therapeutic effects for central neural system and microcirculation,good therapeutic effects for central neural system and microcirculation
